The record followed here is US11878955B1, “3,3′,3″-nitrilotris(1-(naphthalen-2-yloxy)propan-2-ol) as an eco-friendly insecticidal agent against Spodoptera littoralis (boisd.)” (priority 2023, dated 2024).

The subject of this data set is Spodoptera littoralis larvae (2nd and 4th instars). Description: Insecticidal bioassay screening (castor leaf dip). It is filed as in vivo. The note with it: for LC50 (ppm): after 72 h of treatment; for Toxic ratio: 72 h, fenoxycarb's LC50 / the compound's LC50 × 100. Here is the method: Five concentrations (200, 100, 50, 25, 12.5 ppm) were designed for this synthetic compound and the reference fenoxycarb compound as the dynamic ingredients based on ppm via diluting the commercial formulation.
In this experiment, castor leaves are immersed in each of the previously prepared concentrations of the components for 10 seconds and then left to dry for 60 minutes. Larvae of the second and fourth instars of each checked strain are prepared with treated leaves in gauze-covered glass containers for 72 hrs. An untreated control is made in which leaves are dipped in triton x-100 and distilled water only. Then the preserved leaves were removed & fresh, untreated leaves were provided for 72 hours. Three replicates (10 larvae each) were checked for each concentration. Daily inspection was carried out for all treatments and mortality percentages were recorded 3 days (72 hours) after treatment. The average mortality percentage was corrected employing Abbott's formula. The corrected mortality rate for each of the previously synthesized compounds is statistically calculated according to Finney (1970). Through this rate, the corresponding concentration test lines (LDP lines) are assessed. Fifty and ninety percent mortality are determined, and the regression values for the checked products were previously evaluated.

Each structure is given as a SMILES string. ≈ marks a conversion by molar mass, not a printed value.

As for `CCOC(=O)NCCOc1ccc(Oc2ccccc2)cc1` [Fenoxycarb, reference compound], the “LC50 (ppm)” value came out at 2.73 ppm (2nd instar larvae of S. littoralis) and 43.231 ppm (4th instar larvae of S. littoralis). Further, the Toxic ratio was 100 (2nd instar larvae) and 100 (4th instar larvae). The same compound came in with a 50% lethal concentration (LC50) (Spodoptera littoralis, foliar) of 2.73 µg/mL (≈ 9.06 µM).

For orientation: LC50 means the concentration that kills 50% of the test population. Low values mean greater toxicity, high ones lower toxicity.
